# Test results reported in article PMC13099141, “Antibiotic potentiation and inhibition of cross-resistance in pathogens associated with cystic fibrosis” (eLife, 2026).
# Legend:
# Experiment in all cases: nitrocefin hydrolysis, absorbance at […] nm, sonicated lysate
# Type in all cases: biochemical
# Details in all cases: 0.4 mM nitrocefin, 100 mM sodium phosphate pH 7.0, 25 °C; dsbA+ E. coli
# SMB-1 = target: T1, SMB-1 (Serratia marcescens, UniProt G5ELM3)
# T1 construct: full-length class B3 metallo-beta-lactamase, synthetic gene in pDM1, E. coli MC1000 lysate
# AIM-1 = target: T2, AIM-1 (Pseudomonas aeruginosa, UniProt B5DCA0)
# T2 construct: gene blaAIM-1; full-length class B3 metallo-beta-lactamase from pDM1-blaAIM-1 in E. coli MC1000, lysate; gene from clinical isolate
# POM-1 = target: T3, POM-1 (Metapseudomonas otitidis, UniProt E6Y3G9)
# T3 construct: gene pom1; full-length class B3 metallo-beta-lactamase from pDM1-blaPOM-1 in E. coli MC1000, lysate; gene from clinical isolate
# CARB-2 = target: T4, CARB-2 (Pseudomonas aeruginosa, UniProt Q03170)
# T4 construct: gene pse1; full-length class A carbenicillinase, synthetic gene in pDM1, E. coli MC1000 lysate
# BEL-1 = target: T5, BEL-1 (Pseudomonas aeruginosa, UniProt Q3SAW3)
# T5 construct: gene bla(BEL1); full-length class A beta-lactamase from plasmid pDM1-blaBEL-1 in E. coli MC1000, sonicated lysate; gene from clinical isolate
# OXA-50 = target: T6, OXA-50 (Pseudomonas aeruginosa, UniProt G3XCV9)
# T6 construct: gene PA5514; full-length class D beta-lactamase from pDM1-blaOXA-50 in E. coli MC1000, lysate; gene from clinical isolate
# T6 sequence (G3XCV9 entry or part of it): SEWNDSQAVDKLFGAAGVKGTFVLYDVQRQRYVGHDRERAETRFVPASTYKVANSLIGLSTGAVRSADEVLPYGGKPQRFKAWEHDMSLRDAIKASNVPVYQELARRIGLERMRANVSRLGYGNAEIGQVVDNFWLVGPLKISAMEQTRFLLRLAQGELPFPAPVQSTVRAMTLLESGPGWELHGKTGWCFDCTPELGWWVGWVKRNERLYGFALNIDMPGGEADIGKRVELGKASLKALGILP
# T2 sequence (B5DCA0 entry or part of it): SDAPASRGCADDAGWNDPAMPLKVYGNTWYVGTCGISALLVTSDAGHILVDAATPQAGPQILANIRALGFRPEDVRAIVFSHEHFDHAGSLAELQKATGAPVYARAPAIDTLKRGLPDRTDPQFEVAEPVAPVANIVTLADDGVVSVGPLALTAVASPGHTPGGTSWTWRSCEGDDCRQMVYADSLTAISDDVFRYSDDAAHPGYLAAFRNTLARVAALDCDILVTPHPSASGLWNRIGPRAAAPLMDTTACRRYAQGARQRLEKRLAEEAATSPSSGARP
# T5 sequence (Q3SAW3 entry or part of it): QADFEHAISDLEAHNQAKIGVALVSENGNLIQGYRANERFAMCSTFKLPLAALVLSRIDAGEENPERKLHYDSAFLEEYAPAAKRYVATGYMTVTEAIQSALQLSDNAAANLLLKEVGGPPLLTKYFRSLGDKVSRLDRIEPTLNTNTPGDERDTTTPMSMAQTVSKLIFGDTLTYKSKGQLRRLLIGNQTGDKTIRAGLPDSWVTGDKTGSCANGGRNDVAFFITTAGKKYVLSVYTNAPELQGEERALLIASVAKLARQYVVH
# T4 sequence (Q03170 18-288): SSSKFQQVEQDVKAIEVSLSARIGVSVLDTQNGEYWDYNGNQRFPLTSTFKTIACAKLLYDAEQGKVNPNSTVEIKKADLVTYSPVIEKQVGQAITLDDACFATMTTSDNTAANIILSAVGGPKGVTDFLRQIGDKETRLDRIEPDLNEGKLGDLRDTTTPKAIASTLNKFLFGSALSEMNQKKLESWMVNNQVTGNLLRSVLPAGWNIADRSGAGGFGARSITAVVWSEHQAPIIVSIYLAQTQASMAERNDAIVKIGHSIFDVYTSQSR
# T1 sequence (G5ELM3 entry or part of it): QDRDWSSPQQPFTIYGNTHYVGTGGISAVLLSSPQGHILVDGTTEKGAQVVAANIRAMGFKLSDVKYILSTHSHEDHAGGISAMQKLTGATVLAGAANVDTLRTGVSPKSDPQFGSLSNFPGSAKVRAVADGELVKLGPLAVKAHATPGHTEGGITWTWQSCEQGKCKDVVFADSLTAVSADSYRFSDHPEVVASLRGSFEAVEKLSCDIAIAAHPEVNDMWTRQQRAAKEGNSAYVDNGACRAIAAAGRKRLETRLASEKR
# T3 sequence (E6Y3G9 entry or part of it): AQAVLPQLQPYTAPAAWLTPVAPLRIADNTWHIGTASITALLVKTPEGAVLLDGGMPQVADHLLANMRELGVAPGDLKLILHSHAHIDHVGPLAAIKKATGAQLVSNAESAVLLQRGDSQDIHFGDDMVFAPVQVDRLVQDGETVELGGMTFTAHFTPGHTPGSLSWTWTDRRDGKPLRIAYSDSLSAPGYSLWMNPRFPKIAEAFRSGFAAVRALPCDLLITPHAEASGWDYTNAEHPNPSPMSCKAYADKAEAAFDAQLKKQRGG
smiles,measurement,setting,value
O=C(Cc1cccs1)N[C@@H]1C(=O)N2C(C(=O)O)=C(/C=C/c3ccc([N+](=O)[O-])cc3[N+](=O)[O-])CS[C@H]12 [nitrocefin],"nitrocefin hydrolysis, absorbance at 490 nm, sonicated lysate",SMB-1,The hydrolytic activities of both tested β-lactamases are significantly reduced in the absence of DsbA
same,"nitrocefin hydrolysis, absorbance at 490 nm, sonicated lysate",AIM-1,The hydrolysis of the chromogenic β-lactam nitrocefin by cysteine-containing β-lactamases is impaired
same,"nitrocefin hydrolysis, absorbance at 490 nm, sonicated lysate",POM-1,The hydrolytic activities of both tested β-lactamases are significantly reduced in the absence of DsbA
same,"nitrocefin hydrolysis, absorbance at 490 nm, sonicated lysate",CARB-2,The hydrolysis of the chromogenic β-lactam nitrocefin by cysteine-containing β-lactamases is impaired
same,"nitrocefin hydrolysis, absorbance at 490 nm, sonicated lysate",BEL-1,The hydrolysis of the chromogenic β-lactam nitrocefin by cysteine-containing β-lactamases is impaired
same,"nitrocefin hydrolysis, absorbance at 490 nm, sonicated lysate",OXA-50,The hydrolysis of the chromogenic β-lactam nitrocefin by cysteine-containing β-lactamases is impaired
